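A five-concentration, 48-hour dose response in 96-well plates underlies each endpoint, interpolated linearly between surrounding concentrations. Here, GI50 denotes the concentration required for 50% inhibition of growth. TGI marks complete inhibition of growth.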
What was measured:
Test in all cases: NCI tumour cell line growth inhibition, 48 h; in the data active = GI50 below about 0.43 µM; inactive = the rest
A498 renal = test system: A498 renal
A549 NSCLC = test system: A549 NSCLC
ACHN renal = test system: ACHN renal
BT-549 breast = test system: BT-549 breast
CAKI-1 renal = test system: CAKI-1 renal
CCRF-CEM leukemia = test system: CCRF-CEM leukemia
COLO 205 colon = test system: COLO 205 colon
DU-145 prostate = test system: DU-145 prostate
EKVX NSCLC = test system: EKVX NSCLC
HCC-2998 colon = test system: HCC-2998 colon
HCT-15 colon = test system: HCT-15 colon
HL-60(TB) leukemia = test system: HL-60(TB) leukemia
HOP-92 NSCLC = test system: HOP-92 NSCLC
HS 578T breast = test system: HS 578T breast
HT29 colon = test system: HT29 colon
IGROV1 ovarian = test system: IGROV1 ovarian
K-562 leukemia = test system: K-562 leukemia
KM12 colon = test system: KM12 colon
LOX IMVI melanoma = test system: LOX IMVI melanoma
MALME-3M melanoma = test system: MALME-3M melanoma
MCF7 breast = test system: MCF7 breast
MDA-MB-435 = test system: MDA-MB-435
NCI-H226 lung = test system: NCI-H226 lung
NCI-H23 lung = test system: NCI-H23 lung
NCI-H460 lung = test system: NCI-H460 lung
NCI-H522 lung = test system: NCI-H522 lung
NCI/ADR-RES ovarian = test system: NCI/ADR-RES ovarian
OVCAR-3 ovarian = test system: OVCAR-3 ovarian
OVCAR-4 ovarian = test system: OVCAR-4 ovarian
OVCAR-5 ovarian = test system: OVCAR-5 ovarian
OVCAR-8 ovarian = test system: OVCAR-8 ovarian
PC-3 prostate = test system: PC-3 prostate
RPMI-8226 leukemia = test system: RPMI-8226 leukemia
RXF 393 renal = test system: RXF 393 renal
SF-268 CNS = test system: SF-268 CNS
SF-295 CNS = test system: SF-295 CNS
SF-539 CNS = test system: SF-539 CNS
SK-MEL-2 melanoma = test system: SK-MEL-2 melanoma
SK-MEL-28 melanoma = test system: SK-MEL-28 melanoma
SK-MEL-5 melanoma = test system: SK-MEL-5 melanoma
SK-OV-3 ovarian = test system: SK-OV-3 ovarian
SN12C renal = test system: SN12C renal
SNB-19 CNS = test system: SNB-19 CNS
SNB-75 CNS = test system: SNB-75 CNS
SW-620 colon = test system: SW-620 colon
T-47D breast = test system: T-47D breast
TK-10 renal = test system: TK-10 renal
U251 CNS = test system: U251 CNS
UACC-257 melanoma = test system: UACC-257 melanoma
UACC-62 melanoma = test system: UACC-62 melanoma
UO-31 renal = test system: UO-31 renal
786-0 renal = test system: 786-0 renal
HCT-116 colon = test system: HCT-116 colon
HOP-62 NSCLC = test system: HOP-62 NSCLC
M14 melanoma = test system: M14 melanoma
MDA-MB-231 breast = test system: MDA-MB-231 breast
MOLT-4 leukemia = test system: MOLT-4 leukemia
SR leukemia = test system: SR leukemia

OCCCNc1nc(=S)[nH]c2[nH]ncc12
92.2 µM: TGI (SF-268 CNS)
72.6 µM: TGI (NCI-H226 lung)
81.3 µM: TGI (MCF7 breast)
> 100 µM: TGI (A549 NSCLC) | TGI (ACHN renal) | TGI (BT-549 breast) | TGI (CAKI-1 renal) | TGI (CCRF-CEM leukemia) | TGI (COLO 205 colon) | TGI (DU-145 prostate) | TGI (EKVX NSCLC) | TGI (HCC-2998 colon) | TGI (HCT-15 colon) | TGI (HL-60(TB) leukemia) | TGI (HOP-92 NSCLC) | TGI (HT29 colon) | TGI (IGROV1 ovarian) | TGI (K-562 leukemia) | TGI (KM12 colon) | TGI (MALME-3M melanoma) | TGI (MDA-MB-435) | TGI (NCI-H23 lung) | TGI (NCI-H460 lung) | TGI (NCI-H522 lung) | TGI (NCI/ADR-RES ovarian) | TGI (OVCAR-3 ovarian) | TGI (OVCAR-4 ovarian) | TGI (OVCAR-5 ovarian) | TGI (OVCAR-8 ovarian) | TGI (PC-3 prostate) | TGI (RPMI-8226 leukemia) | TGI (RXF 393 renal) | TGI (SF-295 CNS) | TGI (SF-539 CNS) | TGI (SK-MEL-2 melanoma) | TGI (SK-MEL-28 melanoma) | TGI (SK-MEL-5 melanoma) | TGI (SK-OV-3 ovarian) | TGI (SN12C renal) | TGI (SNB-19 CNS) | TGI (SNB-75 CNS) | TGI (SW-620 colon) | TGI (T-47D breast) | TGI (TK-10 renal) | TGI (U251 CNS) | TGI (UACC-257 melanoma) | TGI (UACC-62 melanoma) | TGI (UO-31 renal)
84.5 µM: TGI (LOX IMVI melanoma)
48.2 µM: TGI (A498 renal)
inactive: GI50 (A498 renal) 13.3 µM | GI50 (A549 NSCLC) 44.7 µM | GI50 (ACHN renal) 40 µM | GI50 (BT-549 breast) 46.8 µM | GI50 (CAKI-1 renal) 43.3 µM | GI50 (CCRF-CEM leukemia) 34.7 µM | GI50 (COLO 205 colon) 29.3 µM | GI50 (DU-145 prostate) 41.3 µM | GI50 (EKVX NSCLC) 50.7 µM | GI50 (HCC-2998 colon) 22.3 µM | GI50 (HCT-15 colon) 81.9 µM | GI50 (HL-60(TB) leukemia) > 100 µM | GI50 (HOP-92 NSCLC) 65.6 µM | GI50 (HS 578T breast) 30.7 µM | GI50 (HT29 colon) 54.8 µM | GI50 (IGROV1 ovarian) 29.9 µM | GI50 (K-562 leukemia) 44.5 µM | GI50 (KM12 colon) 38.1 µM | GI50 (LOX IMVI melanoma) 25.4 µM | GI50 (MALME-3M melanoma) 48.3 µM | GI50 (MCF7 breast) 29.8 µM | GI50 (MDA-MB-435) 45.5 µM | GI50 (NCI-H226 lung) 27.6 µM | GI50 (NCI-H23 lung) 51.7 µM | GI50 (NCI-H460 lung) 30.5 µM | GI50 (NCI-H522 lung) 26.1 µM | GI50 (NCI/ADR-RES ovarian) > 100 µM | GI50 (OVCAR-3 ovarian) 31.4 µM | GI50 (OVCAR-4 ovarian) 53.7 µM | GI50 (OVCAR-5 ovarian) 45.8 µM | GI50 (OVCAR-8 ovarian) 37.8 µM | GI50 (PC-3 prostate) 70.2 µM | GI50 (RPMI-8226 leukemia) 80.8 µM | GI50 (RXF 393 renal) 44.3 µM | GI50 (SF-268 CNS) 32.7 µM | GI50 (SF-295 CNS) 49 µM | GI50 (SF-539 CNS) 23.3 µM | GI50 (SK-MEL-2 melanoma) 53.2 µM | GI50 (SK-MEL-28 melanoma) 57.1 µM | GI50 (SK-MEL-5 melanoma) 31.3 µM | GI50 (SK-OV-3 ovarian) 48.7 µM | GI50 (SN12C renal) 41 µM | GI50 (SNB-19 CNS) > 100 µM | GI50 (SNB-75 CNS) > 100 µM | GI50 (SW-620 colon) 44.3 µM | GI50 (T-47D breast) 45 µM | GI50 (TK-10 renal) 33.6 µM | GI50 (U251 CNS) 40.1 µM | GI50 (UACC-257 melanoma) 68 µM | GI50 (UACC-62 melanoma) 30 µM | GI50 (UO-31 renal) 44.1 µM
85.1 µM: TGI (HS 578T breast)

O=[N+]([O-])c1ccc2c(c1)S(=O)(=O)N1Cc3ccccc3CCN21
> 100 µM: TGI (786-0 renal) | TGI (A498 renal) | TGI (A549 NSCLC) | TGI (ACHN renal) | TGI (CAKI-1 renal) | TGI (CCRF-CEM leukemia) | TGI (COLO 205 colon) | TGI (DU-145 prostate) | TGI (EKVX NSCLC) | TGI (HCC-2998 colon) | TGI (HCT-116 colon) | TGI (HCT-15 colon) | TGI (HL-60(TB) leukemia) | TGI (HOP-62 NSCLC) | TGI (HOP-92 NSCLC) | TGI (HS 578T breast) | TGI (HT29 colon) | TGI (IGROV1 ovarian) | TGI (K-562 leukemia) | TGI (KM12 colon) | TGI (LOX IMVI melanoma) | TGI (M14 melanoma) | TGI (MALME-3M melanoma) | TGI (MCF7 breast) | TGI (MDA-MB-231 breast) | TGI (MDA-MB-435) | TGI (MOLT-4 leukemia) | TGI (NCI-H226 lung) | TGI (NCI-H23 lung) | TGI (NCI-H460 lung) | TGI (NCI-H522 lung) | TGI (NCI/ADR-RES ovarian) | TGI (OVCAR-3 ovarian) | TGI (OVCAR-4 ovarian) | TGI (OVCAR-5 ovarian) | TGI (OVCAR-8 ovarian) | TGI (PC-3 prostate) | TGI (RPMI-8226 leukemia) | TGI (RXF 393 renal) | TGI (SF-268 CNS) | TGI (SF-295 CNS) | TGI (SF-539 CNS) | TGI (SK-MEL-2 melanoma) | TGI (SK-MEL-28 melanoma) | TGI (SK-MEL-5 melanoma) | TGI (SN12C renal) | TGI (SNB-19 CNS) | TGI (SNB-75 CNS) | TGI (SR leukemia) | TGI (SW-620 colon) | TGI (TK-10 renal) | TGI (U251 CNS) | TGI (UACC-257 melanoma) | TGI (UACC-62 melanoma) | TGI (UO-31 renal)

From PubChem BioAssay (NCI)
